In patent publication EP0079792A2, “Process for production of urease” (priority 1981, dated 1983):

B1: urease from Corynebacterium lilium ATCC 21644 (Corynebacterium glutamicum ATCC 13032) (protein)
chain: MSFEISRKQYTDLYGPTVGDSVRLADTELFLCVEKDYAAIGEEVAFGGGKVIRDGMGQNGTLVRDVDIPDTVITNVIVLDYTGVYKADVALRDGKIFRIGKAGNPNVMENVDIVIGVATDIIAGEGKILTAGGIDTHVHFLGTDQVNTALASGITTMIGGGTGPSQASMATTVTPGQWNTYNMLSAFEGMPMNFGILGKGHGSSKSPLAEQVRAGAIGLKIHEDWGATPSSINTALEVADDMDIQVALHSDTLNEAGFVEDTIEAIAGRVIHTFHTEGAGGGHAPDLIRVAALPNVLPASTNPTLPYTRNTVEEHLDMVMVAHHLNPDIPEDVAFADSRIRAETIAAEDVLHDMGIFSITSSDSQAMGRVGETITRTWQVADHMKRTRGSLTGDAPYNDNNRLRRFIAKYTINPAIAHGVDYVVGSVEEGKFADLVLWDPKFFGVKPDLVIKGGLMVNSLMGDSNGSIPTPQPRTLRNTWGAFGQAVSRSSITFLSQDAIDANVPDLLNLRKQIRGVRGVRNLTKRDMKLNAEMPDIRVDPETYQVFVNGELITSKPAETVPMARRYFLF

Legend:
[1] = test system: urease from Arthrobacter parafineus ATCC 15591; test: Km determination, crude enzymatic solution (Example 2); type: biochemical
Protocol: The above reagents are mixed with each other and incubated at 37°C for 5 minutes. To the mixture is added 0.01 ml of an enzyme solution, the enzymatic activity of which is to be determined. The absorba^ncy at OD340nm (=E1) after one minute and that at OD340nm (=E2) after two minutes are recorded at 37°C on a spectrophotometer, respectively.
In this example, each of the strains identified in the following Table 1 is cultured in the same manner as described in Example 1 to obtain microbial cells. From the microbial cells, a crude enzymatic solution is prepared to culculate the enzymatic activity and to determine the Km value.

[2] = substrate: NC(N)=O; test: purified protein, by the assay type; details: other: phosphate buffer (pH 7.5), purified enzyme preparate of Example 1

Molecule | Km [1] | Km [2]
NC(N)=O [urea] | 20 mM | 
B1 |  | 20 mM
